Measured values: patent US20230085307A1, “PYRIDAZINONE COMPOUND AND HERBICIDE” (NISSAN CHEMICAL CORPORATION, priority 2019, published 2023)

Key:
wild oat [1] = test: Test Example 5: herbicidal effect by foliage application, plastic box (Table 20, symbol I); format: in vivo, wild oat (Avena fatua); settings: foliage application, 320 g/ha, evaluated three weeks after application
In short: (§1)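 Foliar spray test: emulsion formulation diluted in water to a set application rate, sprayed onto 14-day-old plants raised in diluvial soil at 25° C to 30° C under glass. Both herbicidal effect and crop effect rated visually three weeks later.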

barnyard grass [2] = test: Test Example 4: herbicidal effect by soil treatment (Table 19, symbol H); format: in vivo, barnyard grass (Echinochloa crus-galli); settings: amount of applied herbicide 320 g/ha
In short: (§2)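 Herbicidal effect was rated 3 weeks after treatment, using the scoring criteria of an earlier test. The compound, formulated as an emulsion and diluted in water to a set herbicide amount, had been sprayed uniformly on soil over freshly sown seeds. Growth took place in a greenhouse at 25° C. to 30° C.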

windgrass [3] = test: Test Example 4: herbicidal effect by soil treatment (Table 19, symbol L); format: in vivo, windgrass (Apera spica-venti); settings: amount of applied herbicide 320 g/ha
In short: as §2

false cleavers [4] = test: Test Example 5: herbicidal effect by foliage application, plastic box (Table 20, symbol Q); format: in vivo, false cleavers (Galium spurium); settings: foliage application, 320 g/ha, evaluated three weeks after application
In short: as §1

windgrass [5] = test: Test Example 5: herbicidal effect by foliage application, plastic box (Table 20, symbol L); format: in vivo, windgrass (Apera spica-venti); settings: foliage application, 320 g/ha, evaluated three weeks after application
In short: as §1

velvetleaf [6] = test: Test Example 4: herbicidal effect by soil treatment (Table 19, symbol M); format: in vivo, velvetleaf (Abutilon theophrasti); settings: amount of applied herbicide 320 g/ha
In short: as §2

southern crabgrass [7] = test: Test Example 4: herbicidal effect by soil treatment (Table 19, symbol F); format: in vivo, southern crabgrass (Digitaria ciliaris); settings: amount of applied herbicide 320 g/ha
In short: as §2

redroot pigweed [8] = test: Test Example 4: herbicidal effect by soil treatment (Table 19, symbol N); format: in vivo, redroot pigweed (Amaranthus retroflexus); settings: amount of applied herbicide 320 g/ha
In short: as §2

green foxtail [9] = test: Test Example 4: herbicidal effect by soil treatment (Table 19, symbol G); format: in vivo, green foxtail (Setaria viridis); settings: amount of applied herbicide 320 g/ha
In short: as §2

barnyard grass [10] = test: Test Example 5: herbicidal effect by foliage application, plastic box (Table 20, symbol H); format: in vivo, barnyard grass (Echinochloa crus-galli); settings: foliage application, 320 g/ha, evaluated three weeks after application
In short: as §1

Italian ryegrass [11] = test: Test Example 5: herbicidal effect by foliage application, plastic box (Table 20, symbol K); format: in vivo, Italian ryegrass (Lolium multiflorum); settings: foliage application, 320 g/ha, evaluated three weeks after application
In short: as §1

green foxtail [12] = test: Test Example 5: herbicidal effect by foliage application, plastic box (Table 20, symbol G); format: in vivo, green foxtail (Setaria viridis); settings: foliage application, 320 g/ha, evaluated three weeks after application
In short: as §1

false cleavers [13] = test: Test Example 4: herbicidal effect by soil treatment (Table 19, symbol Q); format: in vivo, false cleavers (Galium spurium); settings: amount of applied herbicide 320 g/ha
In short: as §2

rice flat sedge = test: Test Example 3: herbicidal effect by foliage application, Wagner pot (Table 18, symbol E); format: in vivo, rice flat sedge (Cyperus iria)
In short: (§3)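 Plants were sown in alluvial soil held under 0.1–0.5 cm standing water and grown 14 days in a greenhouse at 25–30 °C. An emulsifiable formulation, water-diluted to the set dose, was then sprayed onto the foliage, and effects were scored three weeks later using previously defined criteria.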

Chinese sprangletop = test: Test Example 3: herbicidal effect by foliage application, Wagner pot (Table 18, symbol D); format: in vivo, chinese sprangletop (Leptochloa chinensis)
In short: as §3

wild oat [14] = test: Test Example 4: herbicidal effect by soil treatment (Table 19, symbol I); format: in vivo, wild oat (Avena fatua); settings: amount of applied herbicide 320 g/ha
In short: as §2

blackgrass [15] = test: Test Example 5: herbicidal effect by foliage application, plastic box (Table 20, symbol J); format: in vivo, blackgrass (Alopecurus myosuroides); settings: foliage application, 320 g/ha, evaluated three weeks after application
In short: as §1

southern crabgrass [16] = test: Test Example 5: herbicidal effect by foliage application, plastic box (Table 20, symbol F); format: in vivo, southern crabgrass (Digitaria ciliaris); settings: foliage application, 320 g/ha, evaluated three weeks after application
In short: as §1

persian speedwell [17] = test: Test Example 5: herbicidal effect by foliage application, plastic box (Table 20, symbol R); format: in vivo, Persian speedwell (Veronica persica); settings: foliage application, 320 g/ha, evaluated three weeks after application
In short: as §1

chickweed [18] = test: Test Example 4: herbicidal effect by soil treatment (Table 19, symbol P); format: in vivo, common chickweed (Stellaria media); settings: amount of applied herbicide 320 g/ha
In short: as §2

redroot pigweed [19] = test: Test Example 5: herbicidal effect by foliage application, plastic box (Table 20, symbol N); format: in vivo, redroot pigweed (Amaranthus retroflexus); settings: foliage application, 320 g/ha, evaluated three weeks after application
In short: as §1

Italian ryegrass [20] = test: Test Example 4: herbicidal effect by soil treatment (Table 19, symbol K); format: in vivo, Italian ryegrass (Lolium multiflorum); settings: amount of applied herbicide 320 g/ha
In short: as §2

blackgrass [21] = test: Test Example 4: herbicidal effect by soil treatment (Table 19, symbol J); format: in vivo, blackgrass (Alopecurus myosuroides); settings: amount of applied herbicide 320 g/ha
In short: as §2

velvetleaf [22] = test: Test Example 5: herbicidal effect by foliage application, plastic box (Table 20, symbol M); format: in vivo, velvetleaf (Abutilon theophrasti); settings: foliage application, 320 g/ha, evaluated three weeks after application
In short: as §1

lambsquarters [23] = test: Test Example 5: herbicidal effect by foliage application, plastic box (Table 20, symbol O); format: in vivo, lambsquarters (Chenopodium album); settings: foliage application, 320 g/ha, evaluated three weeks after application
In short: as §1

lambsquarters [24] = test: Test Example 4: herbicidal effect by soil treatment (Table 19, symbol O); format: in vivo, lambsquarters (Chenopodium album); settings: amount of applied herbicide 320 g/ha
In short: as §2

barnyard grass [25] = test: Test Example 3: herbicidal effect by foliage application, Wagner pot (Table 18, symbol H); format: in vivo, barnyard grass (Echinochloa crus-galli)
In short: as §3

persian speedwell [26] = test: Test Example 4: herbicidal effect by soil treatment (Table 19, symbol R); format: in vivo, Persian speedwell (Veronica persica); settings: amount of applied herbicide 320 g/ha
In short: as §2

chickweed [27] = test: Test Example 5: herbicidal effect by foliage application, plastic box (Table 20, symbol P); format: in vivo, common chickweed (Stellaria media); settings: foliage application, 320 g/ha, evaluated three weeks after application
In short: as §1

[28] = amount of applied herbicide 320 g/ha

Structure (SMILES): CCOc1ccccc1-c1sc2ccc(Cl)cc2c1-c1c(O)c(C)nn(C)c1=O [2-105]
- herbicidal effect on I: wild oat (wild oat [1]): 1 (Herbicidal rate of 5% or more and less than 20%)
- H: barnyard grass, herbicidal effect rating (barnyard grass [2]): 3 (Herbicidal rate of 40% or more and less than 70%)
- L: windgrass, herbicidal effect rating (windgrass [3]): 0 (Herbicidal rate of 5% or less (almost no effect))
- herbicidal effect on Q: false cleavers (false cleavers [4]): 5 (Herbicidal rate of 90% or more (almost completely withered))
- herbicidal effect on L: windgrass (windgrass [5]): 0 (Herbicidal rate of 5% or less (almost no effect))
- M: velvetleaf, herbicidal effect rating (velvetleaf [6]): 3 (Herbicidal rate of 40% or more and less than 70%)
- F: southern crabgrass, herbicidal effect rating (southern crabgrass [7]): 3 (Herbicidal rate of 40% or more and less than 70%)
- N: redroot pigweed, herbicidal effect rating (redroot pigweed [8]): 5 (Herbicidal rate of 90% or more (almost completely withered))
- G: green foxtail, herbicidal effect rating (green foxtail [9]): 2 (Herbicidal rate of 20% or more and less than 40%)
- herbicidal effect on H: barnyard grass (barnyard grass [10]): 0 (Herbicidal rate of 5% or less (almost no effect))
- herbicidal effect on K: Italian ryegrass (Italian ryegrass [11]): 0 (Herbicidal rate of 5% or less (almost no effect))
- herbicidal effect on G: green foxtail (green foxtail [12]): 0 (Herbicidal rate of 5% or less (almost no effect))
- Q: false cleavers, herbicidal effect rating (false cleavers [13]): 4 (Herbicidal rate of 70% or more and less than 90%)
- herbicidal effect on E (rice flat sedge), rating 0-5 (rice flat sedge; 320 g/ha): 3 (Herbicidal rate of 40% or more and less than 70%)
- herbicidal effect on D (Chinese sprangletop), rating 0-5 (Chinese sprangletop; 320 g/ha): 0 (Herbicidal rate of 5% or less (almost no effect))
- I: wild oat, herbicidal effect rating (wild oat [14]): 0 (Herbicidal rate of 5% or less (almost no effect))
- herbicidal effect on J: blackgrass (blackgrass [15]): 0 (Herbicidal rate of 5% or less (almost no effect))
- herbicidal effect on F: southern crabgrass (southern crabgrass [16]): 4 (Herbicidal rate of 70% or more and less than 90%)
- herbicidal effect on R: persian speedwell (persian speedwell [17]): 5 (Herbicidal rate of 90% or more (almost completely withered))
- P: chickweed, herbicidal effect rating (chickweed [18]): 3 (Herbicidal rate of 40% or more and less than 70%)
- herbicidal effect on N: redroot pigweed (redroot pigweed [19]): 5 (Herbicidal rate of 90% or more (almost completely withered))
- K: Italian ryegrass, herbicidal effect rating (Italian ryegrass [20]): 0 (Herbicidal rate of 5% or less (almost no effect))
- J: blackgrass, herbicidal effect rating (blackgrass [21]): 0 (Herbicidal rate of 5% or less (almost no effect))
- herbicidal effect on M: velvetleaf (velvetleaf [22]): 5 (Herbicidal rate of 90% or more (almost completely withered))
- herbicidal effect on O: lambsquarters (lambsquarters [23]): 3 (Herbicidal rate of 40% or more and less than 70%)
- O: lambsquarters, herbicidal effect rating (lambsquarters [24]): 4 (Herbicidal rate of 70% or more and less than 90%)
- herbicidal effect on H (barnyard grass), rating 0-5 (barnyard grass [25]; 320 g/ha): 4 (Herbicidal rate of 70% or more and less than 90%)
- R: persian speedwell, herbicidal effect rating (persian speedwell [26]): 3 (Herbicidal rate of 40% or more and less than 70%)
- herbicidal effect on P: chickweed (chickweed [27]): 5 (Herbicidal rate of 90% or more (almost completely withered))

Structure (SMILES): CCCC(=O)Oc1c(C)nn(C)c(=O)c1-c1c(-c2ccc(OC)c(OC)c2)sc2ccc(Cl)cc12 [2-124]
- herbicidal effect on I: wild oat (wild oat [1]): 0 (Herbicidal rate of 5% or less (almost no effect))
- H: barnyard grass, herbicidal effect rating (barnyard grass [2]): 0 (Herbicidal rate of 5% or less (almost no effect))
- L: windgrass, herbicidal effect rating (windgrass [3]): 0 (Herbicidal rate of 5% or less (almost no effect))
- herbicidal effect on Q: false cleavers (false cleavers [4]): 0 (Herbicidal rate of 5% or less (almost no effect))
- herbicidal effect on L: windgrass (windgrass [5]): 0 (Herbicidal rate of 5% or less (almost no effect))
- M: velvetleaf, herbicidal effect rating (velvetleaf [6]): 0 (Herbicidal rate of 5% or less (almost no effect))
- F: southern crabgrass, herbicidal effect rating (southern crabgrass [7]): 1 (Herbicidal rate of 5% or more and less than 20%)
- N: redroot pigweed, herbicidal effect rating (redroot pigweed [8]): 0 (Herbicidal rate of 5% or less (almost no effect))
- G: green foxtail, herbicidal effect rating (green foxtail [9]): 0 (Herbicidal rate of 5% or less (almost no effect))
- herbicidal effect on H: barnyard grass (barnyard grass [10]): 0 (Herbicidal rate of 5% or less (almost no effect))
- herbicidal effect on K: Italian ryegrass (Italian ryegrass [11]): 0 (Herbicidal rate of 5% or less (almost no effect))
- herbicidal effect on G: green foxtail (green foxtail [12]): 0 (Herbicidal rate of 5% or less (almost no effect))
- Q: false cleavers, herbicidal effect rating (false cleavers [13]): 0 (Herbicidal rate of 5% or less (almost no effect))
- herbicidal effect on E: rice flat sedge (rice flat sedge; [28]): 0 (Herbicidal rate of 5% or less (almost no effect))
- herbicidal effect on D: Chinese sprangletop (Chinese sprangletop; [28]): 1 (Herbicidal rate of 5% or more and less than 20%)
- I: wild oat, herbicidal effect rating (wild oat [14]): 0 (Herbicidal rate of 5% or less (almost no effect))
- herbicidal effect on J: blackgrass (blackgrass [15]): 0 (Herbicidal rate of 5% or less (almost no effect))
- herbicidal effect on F: southern crabgrass (southern crabgrass [16]): 0 (Herbicidal rate of 5% or less (almost no effect))
- herbicidal effect on R: persian speedwell (persian speedwell [17]): 5 (Herbicidal rate of 90% or more (almost completely withered))
- P: chickweed, herbicidal effect rating (chickweed [18]): 0 (Herbicidal rate of 5% or less (almost no effect))
- herbicidal effect on N: redroot pigweed (redroot pigweed [19]): 2 (Herbicidal rate of 20% or more and less than 40%)
- K: Italian ryegrass, herbicidal effect rating (Italian ryegrass [20]): 0 (Herbicidal rate of 5% or less (almost no effect))
- J: blackgrass, herbicidal effect rating (blackgrass [21]): 0 (Herbicidal rate of 5% or less (almost no effect))
- herbicidal effect on M: velvetleaf (velvetleaf [22]): 1 (Herbicidal rate of 5% or more and less than 20%)
- herbicidal effect on O: lambsquarters (lambsquarters [23]): 0 (Herbicidal rate of 5% or less (almost no effect))
- O: lambsquarters, herbicidal effect rating (lambsquarters [24]): 3 (Herbicidal rate of 40% or more and less than 70%)
- herbicidal effect on H: barnyard grass (barnyard grass [25]; [28]): 3 (Herbicidal rate of 40% or more and less than 70%)
- R: persian speedwell, herbicidal effect rating (persian speedwell [26]): 0 (Herbicidal rate of 5% or less (almost no effect))
- herbicidal effect on P: chickweed (chickweed [27]): 2 (Herbicidal rate of 20% or more and less than 40%)
